Species: Rattus norvegicus
Assay: DrugMatrix - Regimen: Daily Repeat
Format: toxicity, organism-based, Sprague-Dawley
Parameters: regimen Daily Repeat, gender Male, age 6-8 weeks
Details: in vivo, sc, 0.07 mg/kg, route subcutaneous, dose level Low, […]; for ABSOLUTE BASOPHIL / ABSOLUTE EOSINOPHIL / ABSOLUTE LYMPHOCYTE / ABSOLUTE MONOCYTE / ABSOLUTE SEGMENTED NEUTROPHIL / BASOPHIL / EOSINOPHIL / ERYTHROCYTE COUNT / HEMATOCRIT / HEMOGLOBIN / LEUKOCYTE COUNT / LYMPHOCYTE / MEAN CORPUSCULAR HEMOGLOBIN / MEAN CORPUSCULAR HEMOGLOBIN CONCENTRATION / MEAN CORPUSCULAR VOLUME / MONOCYTE / NEUTROPHIL / NUCLEATED RED BLOOD CELLS / PLATELET COUNT: tissue Blood; for ALANINE AMINOTRANSFERASE / ALBUMIN / ALKALINE PHOSPHATASE / ASPARTATE AMINOTRANSFERASE / BLOOD UREA NITROGEN / CARBON DIOXIDE / CHLORIDE / CHOLESTEROL / CREATINE PHOSPHOKINASE / CREATININE / GLUCOSE / LACTATE DEHYDROGENASE / LIPASE / PHOSPHORUS / POTASSIUM / SODIUM / TOTAL BILIRUBIN / TOTAL PROTEIN / URIC ACID: tissue Plasma

CC1(C)O[C@@H]2C[C@H]3[C@@H]4C[C@H](F)C5=CC(=O)C=C[C@]5(C)[C@@]4(F)[C@@H](O)C[C@]3(C)[C@]2(C(=O)CO)O1 [FLUOCINOLONE ACETONIDE]
ABSOLUTE BASOPHIL (72 h, time 3 day): 0 CELLS/uL | ABSOLUTE EOSINOPHIL (72 h, time 3 day): 53 CELLS/uL | ABSOLUTE LYMPHOCYTE (72 h, time 3 day): 3882.67 CELLS/uL | ABSOLUTE MONOCYTE (72 h, time 3 day): 130 CELLS/uL | ABSOLUTE SEGMENTED NEUTROPHIL (72 h, time 3 day): 1667.67 CELLS/uL | BASOPHIL (72 h, time 3 day): 0% | EOSINOPHIL (72 h, time 3 day): 1% | ERYTHROCYTE COUNT (72 h, time 3 day): 5.77 x10E6/uL | HEMATOCRIT (72 h, time 3 day): 37.27% | HEMOGLOBIN (72 h, time 3 day): 13.5 G/DL | LEUKOCYTE COUNT (72 h, time 3 day): 5.73 x10E3/uL | LYMPHOCYTE (72 h, time 3 day): 66% | MEAN CORPUSCULAR HEMOGLOBIN (72 h, time 3 day): 23.4 pg | MEAN CORPUSCULAR HEMOGLOBIN CONCENTRATION (72 h, time 3 day): 36.23 G/DL | MEAN CORPUSCULAR VOLUME (72 h, time 3 day): 64.67 fL | MONOCYTE (72 h, time 3 day): 2.33% | NEUTROPHIL (72 h, time 3 day): 30.67% | NUCLEATED RED BLOOD CELLS (72 h, time 3 day): 0.67 /100WBC | PLATELET COUNT (72 h, time 3 day): 1436 x10E3/uL | ALANINE AMINOTRANSFERASE (72 h, time 3 day): 77.67 u/L | ALBUMIN (72 h, time 3 day): 5.23 G/DL | ALKALINE PHOSPHATASE (72 h, time 3 day): 414.67 u/L | ASPARTATE AMINOTRANSFERASE (72 h, time 3 day): 135.67 u/L | BLOOD UREA NITROGEN (72 h, time 3 day): 21.33 mg/dL | CARBON DIOXIDE (72 h, time 3 day): 24.33 mmol/L | CHLORIDE (72 h, time 3 day): 102 MEQ/L | CHOLESTEROL (72 h, time 3 day): 107 mg/dL | CREATINE PHOSPHOKINASE (72 h, time 3 day): 290 u/L | CREATININE (72 h, time 3 day): 0.31 mg/dL | GLUCOSE (72 h, time 3 day): 275.67 mg/dL | LACTATE DEHYDROGENASE (72 h, time 3 day): 425.33 u/L | LIPASE (72 h, time 3 day): 10.67 u/L | PHOSPHORUS (72 h, time 3 day): 13.03 mg/dL | POTASSIUM (72 h, time 3 day): 5.79 MEQ/L | SODIUM (72 h, time 3 day): 145.07 MEQ/L | TOTAL BILIRUBIN (72 h, time 3 day): 0.27 mg/dL | TOTAL PROTEIN (72 h, time 3 day): 7.07 G/DL | URIC ACID (72 h, time 3 day): 1.47 mg/dL | ABSOLUTE BASOPHIL (120 h, time 5 day): 0 CELLS/uL | ABSOLUTE EOSINOPHIL (120 h, time 5 day): 0 CELLS/uL | ABSOLUTE LYMPHOCYTE (120 h, time 5 day): 1551.33 CELLS/uL | ABSOLUTE MONOCYTE (120 h, time 5 day): 16 CELLS/uL | ABSOLUTE SEGMENTED NEUTROPHIL (120 h, time 5 day): 3699.33 CELLS/uL | BASOPHIL (120 h, time 5 day): 0% | EOSINOPHIL (120 h, time 5 day): 0% | ERYTHROCYTE COUNT (120 h, time 5 day): 6.67 x10E6/uL | HEMATOCRIT (120 h, time 5 day): 40.23% | HEMOGLOBIN (120 h, time 5 day): 14.73 G/DL | LEUKOCYTE COUNT (120 h, time 5 day): 5.27 x10E3/uL | LYMPHOCYTE (120 h, time 5 day): 32% | MEAN CORPUSCULAR HEMOGLOBIN (120 h, time 5 day): 22.1 pg | MEAN CORPUSCULAR HEMOGLOBIN CONCENTRATION (120 h, time 5 day): 36.6 G/DL | MEAN CORPUSCULAR VOLUME (120 h, time 5 day): 60.37 fL | MONOCYTE (120 h, time 5 day): 0.33% | NEUTROPHIL (120 h, time 5 day): 67.67% | NUCLEATED RED BLOOD CELLS (120 h, time 5 day): 1 /100WBC | PLATELET COUNT (120 h, time 5 day): 1631 x10E3/uL | ALANINE AMINOTRANSFERASE (120 h, time 5 day): 131 u/L | ALBUMIN (120 h, time 5 day): 4.93 G/DL | ALKALINE PHOSPHATASE (120 h, time 5 day): 313 u/L | ASPARTATE AMINOTRANSFERASE (120 h, time 5 day): 231.67 u/L | BLOOD UREA NITROGEN (120 h, time 5 day): 20.33 mg/dL | CARBON DIOXIDE (120 h, time 5 day): 24 mmol/L | CHLORIDE (120 h, time 5 day): 102.33 MEQ/L | CHOLESTEROL (120 h, time 5 day): 92.33 mg/dL | CREATINE PHOSPHOKINASE (120 h, time 5 day): 1505.67 u/L | CREATININE (120 h, time 5 day): 0.26 mg/dL | GLUCOSE (120 h, time 5 day): 389.33 mg/dL | LACTATE DEHYDROGENASE (120 h, time 5 day): 225 u/L | LIPASE (120 h, time 5 day): 10 u/L | PHOSPHORUS (120 h, time 5 day): 13.57 mg/dL | POTASSIUM (120 h, time 5 day): 5.94 MEQ/L | SODIUM (120 h, time 5 day): 147.93 MEQ/L | TOTAL BILIRUBIN (120 h, time 5 day): 0.2 mg/dL | TOTAL PROTEIN (120 h, time 5 day): 6.7 G/DL | URIC ACID (120 h, time 5 day): 2.67 mg/dL
